Key:
mutant p53 = mutant p53 (Homo sapiens, UniProt P04637, P309S/R273H); experiment: Phosphorylation Western blot; format: cell-based; parameters: Phosphorylation of mutant p53 at Thr 55 and phosphorylation of MDM2 at Ser166 were found in SW480 cancer cells; endogenous in cells; host or cells: SW480; details: SW480 cells
Procedure: (§1) Proteins were extracted from cells and electrophoresed through 4-12% SDS-PAGE then transferred to PVDF membranes. The primary antibodies indicated in the figures were incubated with the transferred PVDF in blocking buffer at 4° C. overnight. Antibody binding was detected on PVDF with appropriate IRDye-secondary antibodies (LI-COR Biosciences, USA) by the ODYSSEY infrared imaging system.

[1] = system: p73 knock-down DLD-1 xenograft tumors; experiment: In vivo anti-tumor assay, xenograft; parameters: species or system mice; details: 45 mg/kg i.p. every 5 days
Procedure: (§2) CRL nude mice (female, 4-6 weeks old) were inoculated s.c. in the opposite flanks with 5 million DLD-1 or p73 knock-down DLD-1 cells in an equal volume of martrigel. Treatment with NSC59984 (i.p. injection) was initiated when the tumor masses reached a size of 3-5 mm. NSC59984 (45 mg/kg) was injected by i.p. route every 5 days. Fifteen days after treatment, the mice were euthanized using an institutional animal care and use committee-approved animal protocol.

DLD-1 xenograft tumors = experiment: In vivo anti-tumor assay, xenograft; parameters: species or system mice; details: 45 mg/kg i.p. every 5 days
Procedure: as §2

[2] = system: p53 transcriptional activity; experiment: p53-responsive luciferase reporter bioluminescence imaging; format: cell-based, human; details: for 1/slope of dose-dependent p53-responsive reporter bioluminescence: 24 hr
Procedure: Functional cell-based screening for small molecules that can increase p53-transcriptional activity was performed using noninvasive bioluminescence imaging in human colorectal cancer cells (SW480, DLD-1, HCT116 and p53-null HCT116) that stably express a p53-regulated reporter, as previously described (Wang W, et al., Proc Natl Acad Sci USA 2006; 103: 11003-8). Cells were seeded in 96-well plates at a density of 5×10^4 cells/well. […] Cells treated with 5 μM of Prodigiosin were used as a positive control, and DMSO treatment was used as a negative control in each screened plate. The bioluminescence in each treatment was normalized to DMSO treatment.
SW480, DLD-1, HCT116 and p53-null HCT116 cells which stably express a p53-regulated luciferase reporter were generated as previously described (Wang et al., 2006, Proc. Natl. Acad. Sci. USA 103:11003-11008; Wang et al., 2003, Cancer Biol. Ther. 2:196-202). MRCS, Wi38, Hop92 and RXF393 were obtained from ATCC and cultured as recommended. Cells were regularly authenticated by bioluminescence, growth and morphological observation.

MDM2 = experiment: Phosphorylation Western blot; format: cell-based, human; details: SW480 cells
Procedure: as §1

## CN1CCN(C(=O)/C=C/c2ccc([N+](=O)[O-])o2)CC1 [NSC59984, (E)-1-(4-methylpiperazin-1-yl)-3-(5-nitrofuran-2-yl)prop-2-en-1-one]
Mutant p53
  phosphorylation of mutant p53: phosphorylated at Thr55
[1]
  tumor growth suppression: not observed
[1]; day 15
  tumor weight reduced by: 18%
DLD-1 xenograft tumors; compared to DMSO control
  xenograft tumor growth: significantly repressed
DLD-1 xenograft tumors; day 15
  tumor weight reduced by: 34%
[2]; DLD-1 (mutant p53 S241F)
  1/slope of dose-dependent p53-responsive reporter bioluminescence: 29.75
[2]; SW480 (mutant p53 R273H, P309S)
  1/slope of dose-dependent p53-responsive reporter bioluminescence: 31.37
[2]; SW480 cells, 10 μM
  p53-responsive bioluminescence: increases
[2]; p53-null HCT116 cells
  1/slope of dose-dependent p53-responsive reporter bioluminescence: 102.9
[2]; p53-null HCT116 cells, increasing doses
  p53-responsive bioluminescence: slightly induced
[2]; p73-overexpressing (Ad-p73) SW480 cells vs wild-type p53-overexpressing SW480 cells, 8 hr
  p53-responsive bioluminescence: significantly increased
[2]; p73 knock-down SW480 cells, 8 hr
  NSC59984-induced p53-responsive bioluminescence: abrogated
[2]; wild-type p53-expressing HCT116 cells
  1/slope of dose-dependent p53-responsive reporter bioluminescence: 328.4
[2]; wild-type p53-expressing HCT116 cells, increasing doses
  p53-responsive bioluminescence: no significant increase
MDM2
  phosphorylation of MDM2: phosphorylated at Ser166

From US10322123B2, “Compound for anti-cancer therapy that acts by targeting GOF mutant P53 and stimulates P73 to restore the P53 pathway signaling” (The Penn State Research Foundation, priority 2014, dated 2019)
